From US20230057568A1, “COMPOUNDS FOR TREATING FAMILIAL DYSAUTONOMIA” (PTC THERAPEUTICS, INC., priority 2019, published 2023)

Tested on: Elongator complex protein 1 (ELP1, also referred to as IKBKAP)
Experiment: IKBKAP-HTRF Assay
Format: cell-based, human
Settings: FD patient-derived fibroblasts GM04589, 48 hours incubation
Procedure, shortened: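 Sandwich HTRF (anti-IKAP d2 and K(9+8)) on cell lysates measured IKBKAP protein after overnight 4 °C incubation, read at 665 and 620 nm. Lysates came from FD patient cells exposed 48 hours to 7-point compound dilutions, in triplicate. Outputs: maximum fold increase over vehicle, and EC2× (the concentration giving twice the DMSO-control protein level).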

## Cc1ccoc1CNc1nc(Cl)nc2c(C)c(C[C@H](C)N)sc12 [Cpd 30, 6-[(2S)-2-aminopropyl]-2-chloro-7-methyl-N-[(3-methylfuran-2-yl)methyl]thieno[3,2-d]pyrimidin-4-amine]
7-point concentration curve
  EC2x for IKBKAP protein expression (concentration producing two times the amount of IKBKAP protein vs DMSO vehicle control): *** (between >0.02 μM and ≤0.5 μM)
HTRF
  MFI (maximum fold increase in IKBKAP protein abundance relative to the vehicle control): **** (between >3.9 and <4.9)
